Columns and labels:
[1] = test system: Gram-negative bacteria E. Coli; assay: Antimicrobial activity of coatings on PET surfaces against Gram-negative bacteria (CFU count); type: cell-based; conditions: agent 5 mg/ml embedded in chitosan or alginate matrix, coated on PET; FIG. 5A
Procedure: (§1) Air plasma was applied onto each surface for three (3) minutes prior to coating. The surfaces used in the Examples were polyethylene (PET) sheets. The coating composition was prepared by suspending polymer(s) in water together with the antimicrobial agent(s). The coating composition was then applied on the surface, forming a layer of about 25 µm, using BIUGED and BGD219 instruments in a speed of 6 mm/sec, as shown in FIG. 4. Each coating composition was prepared a few hours, or about 24 hours prior to being applied on the surface. The antimicrobial activity of several coatings was tested against Gram-negative bacteria E. Coli and Gram-positive bacteria Listeria (FIGS. 5A and 5B, respectively, n=3 per each test). Each test was repeated twice (suffix A and B; in FIGS. 5A to 5B).

[2] = test system: Gram-positive bacteria Listeria; assay: Antimicrobial activity of coatings on PET surfaces against Gram-positive bacteria (CFU count); type: cell-based; conditions: agent 5 mg/ml embedded in chitosan or alginate matrix, coated on PET; FIG. 5B
Procedure: as §1

| Compound | reduction of bacterial count (CFU) [1] | reduction of viral count, as measured in colony-forming units (CFU) [2] |
| --- | --- | --- |
| O=C1O[C@H]([C@@H](O)CO)C(O)=C1O [ascorbic acid, Ascorbic acid] | at least one order of magnitude | at least one order of magnitude |
| CCCCCCCCCCCC(=O)N[C@@H](CCCN=C(N)N)C(=O)OCC [lauryl alginate, Lauryl alginate] | at least one order of magnitude | at least one order of magnitude |
| Nisin | – | high cytotoxicity |
